Positions of bridges follow the written chain, without caps; N, C: chain ends. Non-standard residues stand in square brackets, D forms with d. Residues, ends and D or L forms follow the SMILES beside them. *: point of attachment. hPhe(3,5-F2-4-CF3) = N[C@@H](CCc1cc(F)c(C(F)(F)F)c(F)c1)C(=O)O; hPhe(3-Cl-4-CF3) = N[C@@H](CCc1ccc(C(F)(F)F)c(Cl)c1)C(=O)O; hPhe(3-F,4-CF3) = N[C@@H](CCc1ccc(C(F)(F)F)c(F)c1)C(=O)O; NMePhe(4-CF3) = CN[C@@H](Cc1ccc(C(F)(F)F)cc1)C(=O)O; 3Oxa8azabicyclo(3.2.1)octane = C1CC2COCC1N2*; NMePhe(4-Me) = CN[C@@H](Cc1ccc(C)cc1)C(=O)O; NMeAla(cPent) = CN[C@@H](CC1CCCC1)C(=O)O; NMeGly(cPent) = CN[C@H](C(=O)O)C1CCCC1; NMeCha = CN[C@@H](CC1CCCCC1)C(=O)O; cisHyp = O=C(O)[C@@H]1C[C@H](O)CN1; Hyp = O=C(O)[C@@H]1C[C@@H](O)CN1; NMeChg = CN[C@H](C(=O)O)C1CCCCC1; NMeD = CN[C@@H](CC(=O)O)C(=O)O; NMeL = CN[C@@H](CC(C)C)C(=O)O; dNMeAbu = CC[C@@H](NC)C(=O)O; NMeV = CN[C@H](C(=O)O)C(C)C; d(β3hA) = C[C@@H](N)CC(=O)O; NMeS = CN[C@@H](CO)C(=O)O; NMeA = CN[C@@H](C)C(=O)O; Piperidide = C1CCN(*)CC1; dNMeA = CN[C@H](C)C(=O)O; Ac5c = NC1(C(=O)O)CCCC1; Aze = O=C(O)[C@@H]1CCN1; Ac4c = NC1(C(=O)O)CCC1; Sar = CNCC(=O)O; Propyl = CCC*
Each compound was assayed on Human pancreatic cancer cell line AsPC-1 (assay: Measurement of AsPC-1 cell growth inhibition (AsPC-1 CGI)). Settings: 96 h.
Type: cell-based
Summary of the method: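 AsPC-1 cells in 15% FBS RPMI-1640 were exposed to test compound for 96 hours at 37° C, with CellTiter-Glo as endpoint.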

**Q.** `CC[C@H](C)[C@@H]1NC(=O)[C@H](CC(C)C)N(C)C(=O)C[C@@H](C(=O)N2CCCCC2)NC(=O)[C@H](C(C)C)N(C)C(=O)C2(CCCC2)NC(=O)[C@@H]2CCCN2C(=O)[C@H](CCc2ccc(C(F)(F)F)c(Cl)c2)NC(=O)CN(C)C(=O)[C@H](CC2CCCCC2)N(C)C(=O)[C@@H]2CCN2C(=O)[C@H](C)N(C)C1=O` [Compound 1353] ([NMeL]I[NMeA][Aze][NMeCha][Sar][hPhe(3-Cl-4-CF3)]P[Ac5c][NMeV]D-Piperidide; lactam N-11) was tested. Which IC50 did it give?
**A.** 0.1 to 0.5 µM

**Q.** With `CCCOC[C@H]1C(=O)N(C)CC(=O)N[C@@H](CCc2cc(F)c(C(F)(F)F)c(F)c2)C(=O)N2CCC[C@H]2C(=O)NC2(CCCC2)C(=O)N(C)[C@@H](C2CCCC2)C(=O)N(C)[C@H](C(=O)N2C3CCC2COC3)CC(=O)N(C)[C@@H](CC(C)C)C(=O)N[C@@H]([C@@H](C)CC)C(=O)N(C)[C@@H](C)C(=O)N2CC[C@H]2C(=O)N1C` [Compound 1355] ([NMeL]I[NMeA][Aze][NMeS](Propyl)[Sar][hPhe(3,5-F2-4-CF3)]P[Ac5c][NMeGly(cPent)][NMeD]-{3Oxa8azabicyclo(3.2.1)octane}; lactam N-11) as the compound, how does the IC50 read?
**A.** 0.02 to 0.05 µM

**Q.** `CCCOC[C@H]1C(=O)N(C)CC(=O)N[C@@H](CCc2ccc(C(F)(F)F)c(Cl)c2)C(=O)N2CCC[C@H]2C(=O)NC2(CCCC2)C(=O)N(C)[C@@H](C2CCCC2)C(=O)N(C)[C@H](C(=O)N2C3CCC2COC3)CC(=O)N(C)[C@@H](CC2CCCC2)C(=O)N[C@@H]([C@@H](C)CC)C(=O)N[C@@H](C)C(=O)N2CC[C@H]2C(=O)N1C` [Compound 1359] ([NMeAla(cPent)]IA[Aze][NMeS](Propyl)[Sar][hPhe(3-Cl-4-CF3)]P[Ac5c][NMeGly(cPent)][NMeD]-{3Oxa8azabicyclo(3.2.1)octane}; lactam N-11) was tested. Which IC50 did it give?
**A.** 0.05 to 0.1 µM

**Q.** For `CC[C@H](C)[C@@H]1NC(=O)[C@H](CC(C)C)N(C)C(=O)C[C@@H](C(=O)N2CCCCC2)N(C)C(=O)[C@H](C2CCCCC2)N(C)C(=O)C2(CCCC2)NC(=O)[C@@H]2C[C@H](O)CN2C(=O)[C@H](CCc2ccc(C(F)(F)F)c(Cl)c2)NC(=O)CN(C)C(=O)[C@H](CC2CCCCC2)N(C)C(=O)CN(C)C(=O)CN(C)C1=O` [Compound 1374, (3S,9S,18S,21S,25S,28S,34S,36S)-3-[2-[3-chloro-4-(trifluoromethyl)phenyl]ethyl]-28-cyclohexyl-9-(cyclohexylmethyl)-36-hydroxy-21-isobutyl-7,10,13,16,22,26,29-heptamethyl-18-[(1S)-1-methylpropyl]-25-(piperidine-1-carbonyl)spiro[1,4,7,10,13,16,19,22,26,29,32-undecazabicyclo[32.3.0]heptatriacontane-31,1′-cyclopentane]-2,5,8,11,14,17,20,23,27,30,33-undecone] ([NMeL]I[Sar][Sar][NMeCha][Sar][hPhe(3-Cl-4-CF3)][cisHyp][Ac5c][NMeChg][NMeD]-Piperidide; lactam N-11), which IC50 is on record?
**A.** 0.05 to 0.1 µM

**Q.** Which IC50 does the source give for `CC[C@H](C)[C@@H]1NC(=O)[C@H](CC(C)C)N(C)C(=O)C[C@@H](C(=O)N2CCCCC2)N(C)C(=O)[C@H](C2CCCCC2)N(C)C(=O)C2(CCCC2)NC(=O)[C@@H]2C[C@@H](O)CN2C(=O)[C@H](CCc2ccc(C(F)(F)F)c(Cl)c2)NC(=O)CN(C)C(=O)[C@H](CC2CCCCC2)N(C)C(=O)CN(C)C(=O)CN(C)C1=O` [Compound 1376, (3S,9S,18S,21S,25S,28S,34S,36R)-3-[2-[3-chloro-4-(trifluoromethyl)phenyl]ethyl]-28-cyclohexyl-9-(cyclohexylmethyl)-36-hydroxy-21-isobutyl-7,10,13,16,22,26,29-heptamethyl-18-[(1S)-1-methylpropyl]-25-(piperidine-1-carbonyl)spiro[1,4,7,10,13,16,19,22,26,29,32-undecazabicyclo[32.3.0]heptatriacontane-31,1′-cyclopentane]-2,5,8,11,14,17,20,23,27,30,33-undecone] ([NMeL]I[Sar][Sar][NMeCha][Sar][hPhe(3-Cl-4-CF3)][Hyp][Ac5c][NMeChg][NMeD]-Piperidide; lactam N-11) here?
**A.** 0.1 to 0.5 µM

**Q.** Which IC50 does the source give for `CC[C@@H]1C(=O)NC2(CCCC2)C(=O)N(C)[C@@H](C2CCCC2)C(=O)N(C)[C@H](C(=O)N2CCCCC2)CC(=O)N(C)[C@@H](CC(C)C)C(=O)N[C@@H]([C@@H](C)CC)C(=O)N(C)CC(=O)N(C)CC(=O)N(C)[C@@H](CC2CCCCC2)C(=O)N(C)CC(=O)N[C@@H](CCc2ccc(C(F)(F)F)c(Cl)c2)C(=O)N1C` [Compound 1439] ([NMeL]I[Sar][Sar][NMeCha][Sar][hPhe(3-Cl-4-CF3)][dNMeAbu][Ac5c][NMeGly(cPent)][NMeD]-Piperidide; lactam N-11) here?
**A.** 0.1 to 0.5 µM

**Q.** How did the IC50 turn out when `CC[C@H](C)[C@@H]1NC(=O)[C@H](CC(C)C)N(C)C(=O)C[C@@H](C)NC(=O)[C@H](C2CCCC2)N(C)C(=O)C2(CCCC2)NC(=O)[C@@H]2CCCN2C(=O)[C@H](CCc2ccc(C(F)(F)F)c(Cl)c2)NC(=O)CN(C)C(=O)[C@H](Cc2ccc(C)cc2)N(C)C(=O)CN(C)C(=O)CN(C)C1=O` [Compound 1471, (3S,9S,18S,21S,25R,28S,34S)-3-[2-[3-chloro-4-(trifluoromethyl)phenyl]ethyl]-28-cyclopentyl-21-isobutyl-7,10,13,16,22,25,29-heptamethyl-18-[(1S)-1-methylpropyl]-9-(p-tolylmethyl)spiro[1,4,7,10,13,16,19,22,26,29,32-undecazabicyclo[32.3.0]heptatriacontane-31,1′-cyclopentane]-2,5,8,11,14,17,20,23,27,30,33-undecone] (cyclo([Ac5c][NMeGly(cPent)][d(β3hA)][NMeL]I[Sar][Sar][NMePhe(4-Me)][Sar][hPhe(3-Cl-4-CF3)]P)) was run?
**A.** 0.1 to 0.5 µM

**Q.** With `CC[C@H](C)[C@@H]1NC(=O)[C@H](CC(C)C)N(C)C(=O)C[C@@H](C)NC(=O)[C@H](C2CCCC2)N(C)C(=O)C2(CCCC2)NC(=O)[C@@H]2CCCN2C(=O)[C@H](CCc2ccc(C(F)(F)F)c(Cl)c2)NC(=O)CN(C)C(=O)[C@H](Cc2ccc(C(F)(F)F)cc2)N(C)C(=O)[C@@H]2CCN2C(=O)[C@H](C)N(C)C1=O` [Compound 1475] (cyclo([Ac5c][NMeGly(cPent)][d(β3hA)][NMeL]I[NMeA][Aze][NMePhe(4-CF3)][Sar][hPhe(3-Cl-4-CF3)]P)) as the compound, how does the IC50 read?
**A.** 0.05 to 0.1 µM

**Q.** With `CC[C@H](C)[C@@H]1NC(=O)[C@H](CC(C)C)N(C)C(=O)C[C@@H](C)NC(=O)[C@H](C2CCCC2)N(C)C(=O)C2(CCCC2)NC(=O)[C@@H]2CCCN2C(=O)[C@H](CCc2ccc(C(F)(F)F)c(Cl)c2)NC(=O)CN(C)C(=O)[C@H](CC2CCCCC2)N(C)C(=O)[C@@H]2CCN2C(=O)[C@H](C)N(C)C1=O` [Compound 1477] (cyclo([Ac5c][NMeGly(cPent)][d(β3hA)][NMeL]I[NMeA][Aze][NMeCha][Sar][hPhe(3-Cl-4-CF3)]P)) as the compound, how does the IC50 read?
**A.** 0.1 to 0.5 µM

**Q.** `CC[C@H](C)[C@@H]1NC(=O)[C@H](CC(C)C)N(C)C(=O)C[C@@H](C)NC(=O)[C@H](C2CCCC2)N(C)C(=O)C2(CCCC2)NC(=O)[C@@H]2CCCN2C(=O)[C@H](CCc2ccc(C(F)(F)F)c(Cl)c2)NC(=O)[C@@H](C)N(C)C(=O)[C@H](Cc2ccc(C(F)(F)F)cc2)N(C)C(=O)[C@@H]2CCN2C(=O)[C@H](C)N(C)C1=O` [Compound 1482] (cyclo([Ac5c][NMeGly(cPent)][d(β3hA)][NMeL]I[NMeA][Aze][NMePhe(4-CF3)][dNMeA][hPhe(3-Cl-4-CF3)]P)) was tested. Which IC50 did it give?
**A.** 0.1 to 0.5 µM

**Q.** How did the IC50 turn out when `CC[C@H](C)[C@@H]1NC(=O)[C@H](CC(C)C)N(C)C(=O)C[C@@H](C)NC(=O)[C@H](CC(C)C)N(C)C(=O)C2(CCCC2)NC(=O)[C@@H]2C[C@@H](O)CN2C(=O)[C@H](CCc2ccc(C(F)(F)F)c(F)c2)NC(=O)CN(C)C(=O)[C@H](CC2CCCCC2)N(C)C(=O)CN(C)C(=O)CN(C)C1=O` [Compound 1483, (3S,9S,18S,21S,25R,28S,34S,36R)-9-(cyclohexylmethyl)-3-[2-[3-fluoro-4-(trifluoromethyl)phenyl]ethyl]-36-hydroxy-21,28-diisobutyl-7,10,13,16,22,25,29-heptamethyl-18-[(1S)-1-methylpropyl]spiro[1,4,7,10,13,16,19,22,26,29,32-undecazabicyclo[32.3.0]heptatriacontane-31,1′-cyclopentane]-2,5,8,11,14,17,20,23,27,30,33-undecone] (cyclo([Ac5c][NMeL][d(β3hA)][NMeL]I[Sar][Sar][NMeCha][Sar][hPhe(3-F,4-CF3)][Hyp])) was run?
**A.** > 0.5 µM

**Q.** With `CC[C@H](C)[C@@H]1NC(=O)[C@H](C)N(C)C(=O)C[C@@H](C)NC(=O)[C@H](C2CCCC2)N(C)C(=O)C2(CCCC2)NC(=O)[C@@H]2CCCN2C(=O)[C@H](CCc2ccc(C(F)(F)F)c(Cl)c2)NC(=O)CN(C)C(=O)[C@H](Cc2ccc(C)cc2)N(C)C(=O)CN(C)C(=O)CN(C)C1=O` [Compound 1485] (cyclo([Ac5c][NMeGly(cPent)][d(β3hA)][NMeA]I[Sar][Sar][NMePhe(4-Me)][Sar][hPhe(3-Cl-4-CF3)]P)) as the compound, how does the IC50 read?
**A.** 0.1 to 0.5 µM

**Q.** With `CC[C@H](C)[C@@H]1NC(=O)[C@H](C)N(C)C(=O)C[C@@H](C)NC(=O)[C@H](C2CCCC2)N(C)C(=O)C2(CCC2)NC(=O)[C@@H]2CCCN2C(=O)[C@H](CCc2ccc(C(F)(F)F)c(Cl)c2)NC(=O)CN(C)C(=O)[C@H](Cc2ccc(C(F)(F)F)cc2)N(C)C(=O)CN(C)C(=O)CN(C)C1=O` [Compound 1486] (cyclo([Ac4c][NMeGly(cPent)][d(β3hA)][NMeA]I[Sar][Sar][NMePhe(4-CF3)][Sar][hPhe(3-Cl-4-CF3)]P)) as the compound, how does the IC50 read?
**A.** 0.1 to 0.5 µM

**Q.** Which IC50 does the source give for `CC[C@H](C)[C@@H]1NC(=O)[C@H](CC(C)C)N(C)C(=O)C[C@@H](C)NC(=O)[C@H](C2CCCC2)N(C)C(=O)C2(CCCC2)NC(=O)[C@@H]2CCCN2C(=O)[C@H](CCc2ccc(C(F)(F)F)c(Cl)c2)NC(=O)CN(C)C(=O)[C@H](Cc2ccc(C(F)(F)F)cc2)N(C)C(=O)[C@@H]2CCN2C(=O)CN(C)C1=O` [Compound 1496] (cyclo([Ac5c][NMeGly(cPent)][d(β3hA)][NMeL]I[Sar][Aze][NMePhe(4-CF3)][Sar][hPhe(3-Cl-4-CF3)]P)) here?
**A.** 0.05 to 0.1 µM

**Q.** With `CC[C@H](C)[C@@H]1NC(=O)[C@H](C)N(C)C(=O)C[C@@H](C)NC(=O)[C@H](C2CCCC2)N(C)C(=O)C2(CCCC2)NC(=O)[C@@H]2CCCN2C(=O)[C@H](CCc2ccc(C(F)(F)F)c(Cl)c2)NC(=O)[C@@H](C)N(C)C(=O)[C@H](Cc2ccc(C(F)(F)F)cc2)N(C)C(=O)[C@@H]2CCN2C(=O)[C@H](C)N(C)C1=O` [Compound 1497] (cyclo([Ac5c][NMeGly(cPent)][d(β3hA)][NMeA]I[NMeA][Aze][NMePhe(4-CF3)][dNMeA][hPhe(3-Cl-4-CF3)]P)) as the compound, how does the IC50 read?
**A.** 0.1 to 0.5 µM
